{"source": "patent US20240174659A1", "about": "“COMPOUNDS AND METHODS FOR YAP/TEAD MODULATION AND INDICATIONS THEREFOR” (Opna Bio SA, priority 2021, published 2024)", "note": "Where a name gives a salt, the structure may show the parent alone."}
{"tested_on": "TEAD-dependent transcription", "assay": "Inhibitor activity against TEAD-dependent transcription in a cell-based reporter assay (MSTO-211H+12XGTIIC luciferase)", "details": "Homo sapiens; MSTO-211H+12XGTIIC cells, 24 hours incubation, luciferase luminescence normalized to cell viability fluorescence, geometric mean; read-out: MSTO-211H GMean IC50 (uM) Cell Assay Reporter Cell Variant: TEAD", "from_the_text": "Determine Inhibitor Activity Against TEAD-Dependent Transcription in a Cell-Based Reporter Assay\nThe human mesothelioma cell line MSTO-211H was stably transfected with a pGL4.21 plasmid containing a synthetic promoter with 12 copies of the GTIIC TEAD response element that drives the expression of a luciferase reporter gene^1 using Lipofectamine transfection reagent (Thermo Fisher). Transfected cells were selected using puromycin and single cell clones expressing this construct (referred to as MSTO-211H+12XGTIIC) were generated by limiting dilution. MSTO-211H cells was characterized by genetic alterations in key components of the Hippo pathway^2, resulting in up-regulation of YAP/TEAD-mediated transcription. […] To evaluate TEAD inhibitors, the MSTO-211H+12XGTIIC cell line was seeded in a 96-well plate in 50 μL of culture media at 1×10^4 cells per well and incubated at 37° C. overnight. Serial dilutions of compounds (in total volume of 50 μL of culture media) were added to the cells and incubated at 37° C. for 24 hours. Each plate included cells treated with DMSO as high controls and cells treated with 20 μM of the reference compound K-975 (a known TEAD inhibitor)^3 as low controls. Cell viability was assayed by the addition of 25 μL of CellTiter-Fluor reagent (Promega) followed by a 30-minute incubation at 37° C. and quantification of the fluorescence signal (Ex400/Em505). Subsequently, luciferase expression was assayed by the addition of 25 μL of ONE-Glo reagent (Promega) followed by a 10-minute incubation at room temperature and quantification of the luminescence signal. The luminescence signal was normalized to the fluorescence signal to correct for any loss in cell viability over the 24-hour compound incubation period. The percentage of inhibition of normalized luminescence signal, indicative of compound-mediated inhibition of TEAD-dependent transcription, at individual compound concentrations relative to high and low controls was calculated. The data were analyzed by using nonlinear regression to generate IC50 values for individual compounds.", "units": {"IC50": "µM"}}
{"smiles": "C=CC(=O)N1CCc2cc(C)c(Oc3cccc(F)c3)cc2C1", "note": "[P-0042, 1-(7-(3-fluorophenoxy)-6-methyl-3,4-dihydroisoquinolin-2(1H)-yl)prop-2-en-1-one]", "IC50": "0.001 to 0.5"}
{"smiles": "C=CC(=O)N1CCc2cc(C)c(Oc3ccc(F)cc3)cc2C1", "note": "[P-0043, 1-(7-(4-fluorophenoxy)-6-methyl-3,4-dihydroisoquinolin-2(1H)-yl)prop-2-en-1-one]", "IC50": "0.001 to 0.5"}
{"smiles": "C=CC(=O)N1CCc2ccc(Oc3ccc(F)c(C(F)(F)F)c3)cc2C1", "note": "[P-0044, 1-(7-(4-fluoro-3-(trifluoromethyl)phenoxy)-3,4-dihydroisoquinolin-2(1H)-yl)prop-2-en-1-one]", "IC50": "0.001 to 0.5"}
{"smiles": "C=CC(=O)N1CCc2ccc(Oc3ccc(C(F)(F)F)c(F)c3)cc2C1", "note": "[P-0045, 1-(7-(3-fluoro-4-(trifluoromethyl)phenoxy)-3,4-dihydroisoquinolin-2(1H)-yl)prop-2-en-1-one]", "IC50": "0.001 to 0.5"}
{"smiles": "C=CC(=O)N1CCc2ccc(Oc3cccc(C4CC4)c3)cc2C1", "note": "[P-0046, 1-(7-(3-cyclopropylphenoxy)-3,4-dihydroisoquinolin-2(1H)-yl)prop-2-en-1-one]", "IC50": "0.001 to 0.5"}
{"smiles": "C=CC(=O)N1CCc2ccc(Oc3ccc(C4CC4)cc3)cc2C1", "note": "[P-0047, 1-(7-(4-cyclopropylphenoxy)-3,4-dihydroisoquinolin-2(1H)-yl)prop-2-en-1-one]", "IC50": "0.001 to 0.5"}
{"smiles": "C=CC(=O)N1CCc2ccc(Oc3ccc(F)c(C4CC4)c3)cc2C1", "note": "[P-0048, 1-(7-(3-cyclopropyl-4-fluorophenoxy)-3,4-dihydroisoquinolin-2(1H)-yl)prop-2-en-1-one]", "IC50": "0.001 to 0.5"}
{"smiles": "[2H]C([2H])=C([2H])C(=O)N1CCc2ccc(Oc3ccc(C(F)(F)F)c(F)c3)cc2C1", "note": "[P-0049, 1-(7-(3-fluoro-4-(trifluoromethyl)phenoxy)-3,4-dihydroisoquinolin-2(1H)-yl)prop-2-en-1-one-2,3,3-d3]", "IC50": "0.001 to 0.5"}
{"smiles": "C=CC(=O)N1CCc2ccc(Oc3ccc(C4CC4)c(F)c3)cc2C1", "note": "[P-0050, 1-(7-(4-cyclopropyl-3-fluorophenoxy)-3,4-dihydroisoquinolin-2(1H)-yl)prop-2-en-1-one]", "IC50": "0.001 to 0.5"}
{"smiles": "C=C(F)C(=O)N1CCc2ccc(Oc3ccc(C(F)(F)F)nc3)cc2C1", "note": "[P-0051, 2-fluoro-1-(7-((6-(trifluoromethyl)pyridin-3-yl)oxy)-3,4-dihydroisoquinolin-2(1H)-yl)prop-2-en-1-one]", "IC50": "0.001 to 0.5"}
{"smiles": "C=CC(=O)N1CCc2ccc(Oc3ccc(OC(F)(F)F)cc3)cc2C1", "note": "[P-0052, 1-(7-(4-(trifluoromethoxy)phenoxy)-3,4-dihydroisoquinolin-2(1H)-yl)prop-2-en-1-one]", "IC50": "> 20"}
{"smiles": "C=CC(=O)N1CCc2ccc(Oc3ccc(C(F)(F)F)cn3)cc2C1", "note": "[P-0053, 1-(7-((5-(trifluoromethyl)pyridin-2-yl)oxy)-3,4-dihydroisoquinolin-2(1H)-yl)prop-2-en-1-one formate]", "IC50": "0.001 to 0.5"}
{"smiles": "C=CC(=O)N1CCc2ccc(NC34CCC(CC3)CC4)cc2C1", "note": "[P-0054, 1-(7-(bicyclo[2.2.2]octan-1-ylamino)-3,4-dihydroisoquinolin-2(1H)-yl)prop-2-en-1-one formate]", "IC50": "0.001 to 0.5"}
{"smiles": "C=CC(=O)N1CCc2ccc(NC3CC4(CCC4)C3)cc2C1", "note": "[P-0055, 1-(7-(spiro[3.3]heptan-2-ylamino)-3,4-dihydroisoquinolin-2(1H)-yl)prop-2-en-1-one formate]", "IC50": "0.001 to 0.5"}
{"smiles": "C=CC(=O)N1CCc2ccc(N[C@H]3CC[C@H](C(F)(F)F)CC3)cc2C1", "note": "[P-0056, 1-(7-(((1r,4r)-4-(trifluoromethyl)cyclohexyl)amino)-3,4-dihydroisoquinolin-2(1H)-yl)prop-2-en-1-one]", "IC50": "0.001 to 0.5"}
{"smiles": "C=CC(=O)N1CCc2ccc(Oc3cc(F)cc(F)c3)cc2C1", "note": "[P-0057, 1-(7-(3,5-difluorophenoxy)-3,4-dihydroisoquinolin-2(1H)-yl)prop-2-en-1-one]", "IC50": "0.001 to 0.5"}
{"smiles": "C=CC(=O)N1CCc2ccc(Oc3cc(F)ccc3F)cc2C1", "note": "[P-0058, 1-(7-(2,5-difluorophenoxy)-3,4-dihydroisoquinolin-2(1H)-yl)prop-2-en-1-one]", "IC50": "0.001 to 0.5"}
{"smiles": "C=CC(=O)N1CCc2ccc(Oc3ccccn3)cc2C1", "note": "[P-0059, 1-(7-(pyridin-2-yloxy)-3,4-dihydroisoquinolin-2(1H)-yl)prop-2-en-1-one]", "IC50": "> 20"}
{"smiles": "C=CC(=O)N1CCc2ccc(Oc3ccnc(C(F)(F)F)c3)cc2C1", "note": "[P-0060, 1-(7-((2-(trifluoromethyl)pyridin-4-yl)oxy)-3,4-dihydroisoquinolin-2(1H)-yl)prop-2-en-1-one]", "IC50": "0.001 to 0.5"}
{"smiles": "C=CC(=O)N1CCc2ccc(OC3CCCCC3)cc2C1", "note": "[P-0061, 1-(7-(cyclohexyloxy)-3,4-dihydroisoquinolin-2(1H)-yl)prop-2-en-1-one]", "IC50": "0.001 to 0.5"}
{"smiles": "C=CC(=O)N1CCc2ccc(OC3CCC(F)(F)CC3)cc2C1", "note": "[P-0062, 1-(7-((4,4-difluorocyclohexyl)oxy)-3,4-dihydroisoquinolin-2(1H)-yl)prop-2-en-1-one]", "IC50": "0.001 to 0.5"}
{"smiles": "C=CC(=O)N1CCc2ccc(Oc3ccccc3F)cc2C1", "note": "[P-0063, 1-(7-(2-fluorophenoxy)-3,4-dihydroisoquinolin-2(1H)-yl)prop-2-en-1-one]", "IC50": "0.001 to 0.5"}
{"smiles": "C=CC(=O)N1CCc2ccc(OC3CCC4(CCCC4)CC3)cc2C1", "note": "[P-0064, 1-(7-(spiro[4.5]decan-8-yloxy)-3,4-dihydroisoquinolin-2(1H)-yl)prop-2-en-1-one]", "IC50": "0.5 to 20"}
{"smiles": "C=CC(=O)N1CCc2ccc(N[C@H]3CC[C@@H](C(F)(F)F)CC3)cc2C1", "note": "[P-0065, 1-(7-(((1s,4s)-4-(trifluoromethyl)cyclohexyl)ami-no)-3,4-dihydroisoquinolin-2(1H)-yl)prop-2-en-1-one formate]", "IC50": "0.001 to 0.5"}
{"smiles": "C=CC(=O)N1CCc2ccc(NC3CCCC3)cc2C1", "note": "[P-0066, 1-(7-(cyclopentylamino)-3,4-dihydroisoquinolin-2(1H)-yl)prop-2-en-1-one]", "IC50": "0.001 to 0.5"}
{"smiles": "C=CC(=O)N1CCc2ccc(Cc3ccc(F)c(C(F)(F)F)c3)cc2C1", "note": "[P-0067, 1-(7-(4-fluoro-3-(trifluoromethyl)benzyl)-3,4-dihydroisoquinolin-2(1H)-yl)prop-2-en-1-one]", "IC50": "0.001 to 0.5"}
{"smiles": "C=CC(=O)N1CCc2ccc(Cc3ccc(C(F)(F)F)c(F)c3)cc2C1", "note": "[P-0068, 1-(7-(3-fluoro-4-(trifluoromethyl)benzyl)-3,4-dihydroisoquinolin-2(1H)-yl)prop-2-en-1-one]", "IC50": "0.001 to 0.5"}
{"smiles": "C=CC(=O)N1CCc2ccc(Oc3cccc(C(F)(F)F)n3)cc2C1", "note": "[P-0069, 1-(7-((6-(trifluoromethyl)pyridin-2-yl)oxy)-3,4-dihydroisoquinolin-2(1H)-yl)prop-2-en-1-one]", "IC50": "0.5 to 20"}
{"smiles": "C=CC(=O)N1CCc2ccc(OC3CCCCCC3)cc2C1", "note": "[P-0070, 1-(7-(cycloheptyloxy)-3,4-dihydroisoquinolin-2(1H)-yl)prop-2-en-1-one]", "IC50": "0.001 to 0.5"}
{"smiles": "C=CC(=O)N1CCc2ccc(OC3CCC(C(F)(F)F)CC3)cc2C1", "note": "(centres unmarked) [P-0071, 1-(7-((4-(trifluoromethyl)cyclohexyl)oxy)-3,4-dihydroisoquinolin-2(1H)-yl)prop-2-en-1-one]", "IC50": "0.001 to 0.5"}
{"smiles": "C=CC(=O)N1CCc2ccc(Cc3ccc(C(F)(F)F)cc3)cc2C1", "note": "[P-0072, 1-(7-(4-(trifluoromethyl)benzyl)-3,4-dihydroisoquinolin-2(1H)-yl)prop-2-en-1-one]", "IC50": "0.001 to 0.5"}
{"smiles": "C=CC(=O)N1CCc2ccc(Oc3ccc(Cl)c(F)c3)cc2C1", "note": "[P-0073, 1-(7-(4-chloro-3-fluorophenoxy)-3,4-dihydroisoquinolin-2(1H)-yl)prop-2-en-1-one]", "IC50": "0.001 to 0.5"}
{"smiles": "C=CC(=O)N1CCc2ccc(OC3CC4(CCC4)C3)cc2C1", "note": "[P-0074, 1-(7-(spiro[3.3]heptan-2-yloxy)-3,4-dihydroisoquinolin-2(1H)-yl)prop-2-en-1-one]", "IC50": "0.001 to 0.5"}
{"smiles": "C=CC(=O)N1CCc2ccc(O[C@H]3C[C@@H]4[C@H](C3)C4(F)F)cc2C1", "note": "[P-0075, 1-(7-(((1R,3r,5S)-6,6-difluorobicyclo[3.1.0]hexan-3-yl)oxy)-3,4-dihydroisoquinolin-2(1H)-yl)prop-2-en-1-one]", "IC50": "0.001 to 0.5"}
{"smiles": "C=CC(=O)N1CCc2ccc(OC3CC4CCC3C4)cc2C1", "note": "(centres unmarked) [P-0076, 1-(7-(bicyclo[2.2.1]heptan-2-yloxy)-3,4-dihydroisoquinolin-2(1H)-yl)prop-2-en-1-one]", "IC50": "0.001 to 0.5"}
{"smiles": "C=CC(=O)N1CCc2ccc(OC3CCC4(CC3)CC4)cc2C1", "note": "[P-0077, 1-(7-(spiro[2.5]octan-6-yloxy)-3,4-dihydroisoquinolin-2(1H)-yl)prop-2-en-1-one]", "IC50": "0.001 to 0.5"}
{"smiles": "C=CC(=O)N1CCc2ccc(OCc3ccc(C(F)(F)F)cc3)cc2C1", "note": "[P-0078, 1-(7-((4-(trifluoromethyl)benzyl)oxy)-3,4-dihydroisoquinolin-2(1H)-yl)prop-2-en-1-one]", "IC50": "0.5 to 20"}
{"smiles": "C=CC(=O)N1CCc2ccc(OCc3ccc(C(F)(F)F)nc3)cc2C1", "note": "[P-0079, 1-(7-((6-(trifluoromethyl)pyridin-3-yl)methoxy)-3,4-dihydroisoquinolin-2(1H)-yl)prop-2-en-1-one]", "IC50": "> 20"}
